Measurements as given in patent US20120258980A1, “Antibacterial Agent for Drug-Resistant Bacteria, Method for Screening for Same, and Use of Same” (priority 2009, published 2012).
≈ marks a conversion by molar mass, not a printed value. Where two headings read alike, the source gives them in different places.

How the values were obtained:
[1] = system: VISA clinical isolates of MRSA (VI-MRSA) and of MSSA (VI-MSSA); assay: microbe, parasite or virus in culture; format: cell-based, Staphylococcus aureus
Procedure, shortened: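 Strains were grown overnight at 37° C in TSB, adjusted in CAMHB to 0.3 absorbance at 578 nm and diluted 500-fold before equal-volume addition to compound dilutions.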

Enterococcus faecalis = assay: MIC measurement, Test Example 6 (enterococcus); format: cell-based; conditions: Enterococcus faecalis, read-out: MIC
Procedure, shortened: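 E. faecalis strains, including vancomycin-resistant NCTC12201 and NCTC12203, pre-grown overnight in TSB at 37° C, set to A578 0.3 in CAMHB, then diluted 500-fold.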

[2] = system: methicillin-susceptible S. aureus (MSSA), MRSA and mutants thereof; assay: MIC measurement, Test Example 3 (MSSA, MRSA and sequential gyrA/grlA quinolone-resistant mutants); format: cell-based, Staphylococcus aureus; conditions: Staphylococcus aureus
Procedure, shortened: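 Clinical isolates and stepwise gyrA/grlA quinolone-resistant mutants grown overnight at 37° C in TSB, adjusted to A578 0.3 in CAMHB, diluted 500-fold and mixed 1:1 with drug dilutions in CAMHB.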

[3] = system: MRSA, CA-MRSA and MSSA of Staphylococcus aureus; assay: MIC measurement, Test Example 4 (MRSA, CA-MRSA and MSSA strains); format: cell-based; conditions: Staphylococcus aureus
Procedure, shortened: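 S. aureus strains (FDA209P control) grown overnight in TSB at 37° C, resuspended in CAMHB, adjusted to A578 0.3 and diluted 500-fold. Equal volume added to CAMHB with serial compound concentrations, incubated statically overnight at 37° C. MIC read visually as lowest concentration without turbidity.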

CC1COc2c(N3CCN(C)CC3)c(F)cc3c(=O)c(C(=O)O)cn1c23 (stereo not drawn) [OFLX, ofloxacin]
MIC ([1]; Staphylococcus aureus, 99/3700-W, VI-MRSA, The United Kingdom): 16 µg/mL (≈ 44.3 µM) | MIC ([1]; Staphylococcus aureus, 99/3759-V, VI-MRSA, The United Kingdom): 32 µg/mL (≈ 88.6 µM) | MIC ([1]; Staphylococcus aureus, 28160, VI-MRSA, South African Republic): 64 µg/mL (≈ 177 µM) | MIC ([1]; Staphylococcus aureus, 98141, VI-MRSA, France): 16 µg/mL (≈ 44.3 µM) | MIC ([1]; Staphylococcus aureus, A7 (JCSC4842), VI-MRSA, Taiwan): 16 µg/mL (≈ 44.3 µM) | MIC ([1]; Staphylococcus aureus, AMC11094, VI-MRSA, Korea): 128 µg/mL (≈ 354 µM) | MIC ([1]; Staphylococcus aureus, B7 (JCSC4852), VI-MRSA, Taiwan): 16 µg/mL (≈ 44.3 µM) | MIC ([1]; Staphylococcus aureus, BR1, VI-MRSA, Brazil): 64 µg/mL (≈ 177 µM) | MIC ([1]; Staphylococcus aureus, BR2, VI-MRSA, Brazil): 64 µg/mL (≈ 177 µM) | MIC ([1]; Staphylococcus aureus, BR3, VI-MRSA, Brazil): 64 µg/mL (≈ 177 µM) | MIC ([1]; Staphylococcus aureus, BR4, VI-MRSA, Brazil): 64 µg/mL (≈ 177 µM) | MIC ([1]; Staphylococcus aureus, BR5, VI-MRSA, Brazil): 64 µg/mL (≈ 177 µM) | MIC ([1]; Staphylococcus aureus, HIP06297, VI-MRSA, America): 16 µg/mL (≈ 44.3 µM) | MIC ([1]; Staphylococcus aureus, HIP06854, VI-MRSA, America): 16 µg/mL (≈ 44.3 µM) | MIC ([1]; Staphylococcus aureus, HIP07920, VI-MRSA, America): 16 µg/mL (≈ 44.3 µM) | MIC ([1]; Staphylococcus aureus, HIP07930, VI-MRSA, America): 32 µg/mL (≈ 88.6 µM) | MIC ([1]; Staphylococcus aureus, HIP08926, VI-MRSA, America): 16 µg/mL (≈ 44.3 µM) | MIC ([1]; Staphylococcus aureus, HIP09143, VI-MRSA, America): 64 µg/mL (≈ 177 µM) | MIC ([1]; Staphylococcus aureus, HIP09313, VI-MRSA, America): 16 µg/mL (≈ 44.3 µM) | MIC ([1]; Staphylococcus aureus, HIP09433, VI-MRSA, America): 64 µg/mL (≈ 177 µM) | MIC ([1]; Staphylococcus aureus, HIP09662, VI-MRSA, America): 32 µg/mL (≈ 88.6 µM) | MIC ([1]; Staphylococcus aureus, HIP09735, VI-MRSA, America): 32 µg/mL (≈ 88.6 µM) | MIC ([1]; Staphylococcus aureus, HIP09737, VI-MSSA, America): 64 µg/mL (≈ 177 µM) | MIC ([1]; Staphylococcus aureus, HIP09740, VI-MRSA, America): 64 µg/mL (≈ 177 µM) | MIC ([1]; Staphylococcus aureus, HIP10267, VI-MRSA, America): 64 µg/mL (≈ 177 µM) | MIC ([1]; Staphylococcus aureus, HIP10540, VI-MRSA, America): 32 µg/mL (≈ 88.6 µM) | MIC ([1]; Staphylococcus aureus, HIP12864, VI-MRSA, America): 64 µg/mL (≈ 177 µM) | MIC ([1]; Staphylococcus aureus, HIP13036, VI-MRSA, America): 8 µg/mL (≈ 22.1 µM) | MIC ([1]; Staphylococcus aureus, HIP13057, VI-MRSA, America): 32 µg/mL (≈ 88.6 µM) | MIC ([1]; Staphylococcus aureus, IL (HIP7737), VI-MRSA, America): 128 µg/mL (≈ 354 µM) | MIC ([1]; Staphylococcus aureus, JCSC7193, VI-MRSA, Thailand): 16 µg/mL (≈ 44.3 µM) | MIC ([1]; Staphylococcus aureus, JCSC7195, VI-MRSA, Thailand): 64 µg/mL (≈ 177 µM) | MIC ([1]; Staphylococcus aureus, JCSC7203, VI-MRSA, Thailand): 16 µg/mL (≈ 44.3 µM) | MIC ([1]; Staphylococcus aureus, LIM2, VI-MRSA, France): 64 µg/mL (≈ 177 µM) | MIC ([1]; Staphylococcus aureus, LY-1999-01, VI-MSSA, Oman): 8 µg/mL (≈ 22.1 µM) | MIC ([1]; Staphylococcus aureus, LY-1999-03, VI-MRSA, Oman): 8 µg/mL (≈ 22.1 µM) | MIC ([1]; Staphylococcus aureus, MI (HIP5827), VI-MRSA, America): 128 µg/mL (≈ 354 µM) | MIC ([1]; Staphylococcus aureus, MRSA / MSSA / NRS 76 / VISA, NRS76, VI-MSSA, America): 64 µg/mL (≈ 177 µM) | MIC ([1]; Staphylococcus aureus, MRSA / MSSA / NRS 79 / VISA, NRS79, VI-MRSA, America): 128 µg/mL (≈ 354 µM) | MIC ([1]; Staphylococcus aureus, MRSA / MSSA / NRS 118 / VISA, NRS118, VI-MRSA, America): 64 µg/mL (≈ 177 µM) | MIC ([1]; Staphylococcus aureus, MRSA / MSSA / NRS 126 / VISA, NRS126, VI-MRSA, America): 16 µg/mL (≈ 44.3 µM) | MIC ([1]; Staphylococcus aureus, Mu3, VI-MRSA, Japan): 16 µg/mL (≈ 44.3 µM) | MIC ([1]; Staphylococcus aureus, Mu50, VI-MRSA, Japan): 16 µg/mL (≈ 44.3 µM) | MIC ([1]; Staphylococcus aureus, NJ (HIP5836), VI-MRSA, America): 64 µg/mL (≈ 177 µM) | MIC ([1]; Staphylococcus aureus, P1V44, VI-MSSA, Belgium): 4 µg/mL (≈ 11.1 µM) | MIC ([1]; Staphylococcus aureus, PC, VI-MRSA, America): 16 µg/mL (≈ 44.3 µM) | MIC ([1]; Staphylococcus aureus, SA MER-S6, VI-MSSA, France): 1 µg/mL (≈ 2.77 µM) | MIC ([1]; Staphylococcus aureus, SA MER-S12, VI-MSSA, France): 0.5 µg/mL (≈ 1.38 µM) | MIC ([1]; Staphylococcus aureus, SA MER-S20, VI-MSSA, France): 0.25 µg/mL (≈ 0.692 µM) | MIC (Enterococcus faecalis; E. faecalis 36-15672, quinolone-susceptible enterococci): 2 µg/mL (≈ 5.53 µM) | MIC (Enterococcus faecalis; E. faecalis 36-15673, quinolone-susceptible enterococci): 2 µg/mL (≈ 5.53 µM) | MIC (Enterococcus faecalis; E. faecalis 36-15678, quinolone-susceptible enterococci): 2 µg/mL (≈ 5.53 µM) | MIC (Enterococcus faecalis; E. faecalis 36-15686, quinolone-resistant enterococci): 128 µg/mL (≈ 354 µM) | MIC (Enterococcus faecalis; E. faecalis 36-15688, quinolone-susceptible enterococci): 2 µg/mL (≈ 5.53 µM) | MIC (Enterococcus faecalis; E. faecalis 36-15694, quinolone-resistant enterococci): 64 µg/mL (≈ 177 µM) | MIC (Enterococcus faecalis; E. faecalis 36-15696, quinolone-susceptible enterococci): 2 µg/mL (≈ 5.53 µM) | MIC (Enterococcus faecalis; E. faecalis 36-15703, quinolone-resistant enterococci): 64 µg/mL (≈ 177 µM) | MIC (Enterococcus faecalis; E. faecalis 36-15716, quinolone-resistant enterococci): 128 µg/mL (≈ 354 µM) | MIC (Enterococcus faecalis; E. faecalis 36-15718, quinolone-susceptible enterococci): 2 µg/mL (≈ 5.53 µM) | MIC (Enterococcus faecalis; E. faecalis 36-15720, quinolone-susceptible enterococci): 2 µg/mL (≈ 5.53 µM) | MIC (Enterococcus faecalis; E. faecalis 36-15722, quinolone-resistant enterococci): 64 µg/mL (≈ 177 µM) | MIC (Enterococcus faecalis; E. faecalis 36-15726, quinolone-resistant enterococci): 128 µg/mL (≈ 354 µM) | MIC (Enterococcus faecalis; E. faecalis 36-15730, quinolone-susceptible enterococci): 4 µg/mL (≈ 11.1 µM) | MIC (Enterococcus faecalis; E. faecalis 36-15736, quinolone-susceptible enterococci): 2 µg/mL (≈ 5.53 µM) | MIC (Enterococcus faecalis; E. faecalis 36-15741, quinolone-susceptible enterococci): 4 µg/mL (≈ 11.1 µM) | MIC (Enterococcus faecalis; NCTC 12201 / VRE, E. faecalis NCTC12201, vancomycin-resistant (VRE), quinolone-susceptible enterococci): 2 µg/mL (≈ 5.53 µM) | MIC (Enterococcus faecalis; NCTC 12203 / VRE, E. faecalis NCTC12203, vancomycin-resistant (VRE), quinolone-susceptible enterococci): 2 µg/mL (≈ 5.53 µM) | MIC ([2]; MR5867-1, first-step quinolone-resistant mutant, grlA E84K): 1 µg/mL (≈ 2.77 µM) | MIC ([2]; MR5867-3, third-step mutant, further grlA S80F): 64 µg/mL (≈ 177 µM) | MIC ([2]; MR5867-4, fourth-step mutant, further gyrA E88K): > 128 µg/mL | MIC ([2]; MS5935-1, first-step quinolone-resistant mutant, grlA S80F): 1 µg/mL (≈ 2.77 µM) | MIC ([2]; MS5935-3, third-step mutant, further grlA E84K): 128 µg/mL (≈ 354 µM) | MIC ([2]; MS5952-1, first-step quinolone-resistant mutant, grlA S80Y): 1 µg/mL (≈ 2.77 µM) | MIC ([2]; MS5952-3, third-step mutant, further grlA A116V): 64 µg/mL (≈ 177 µM) | MIC ([3]; ATCC 29213 / MRSA / MSSA, ATCC 29213, MSSA): 0.25 µg/mL (≈ 0.692 µM) | MIC ([3]; COL, MRSA): 0.5 µg/mL (≈ 1.38 µM) | MIC ([3]; FDA209P / MRSA / MSSA, FDA209P, MSSA): 0.125 µg/mL (≈ 0.346 µM) | MIC ([3]; ISA12-1, MRSA): 0.5 µg/mL (≈ 1.38 µM) | MIC ([3]; ISA12-2, MRSA): 0.5 µg/mL (≈ 1.38 µM) | MIC ([3]; ISA35-1, MRSA): 2 µg/mL (≈ 5.53 µM) | MIC ([3]; ISA37-1, MSSA): 0.25 µg/mL (≈ 0.692 µM) | MIC ([3]; ISA49-1, MSSA): 0.25 µg/mL (≈ 0.692 µM) | MIC ([3]; ISA51-1, MSSA): 0.5 µg/mL (≈ 1.38 µM) | MIC ([3]; ISA56-3, MRSA): 0.5 µg/mL (≈ 1.38 µM) | MIC ([3]; ISA58-1, MRSA): 0.5 µg/mL (≈ 1.38 µM) | MIC ([3]; ISA62-1, MRSA): 0.25 µg/mL (≈ 0.692 µM) | MIC ([3]; ISA73-1, MSSA): 0.25 µg/mL (≈ 0.692 µM) | MIC ([3]; KBSA32, MRSA): 0.25 µg/mL (≈ 0.692 µM) | MIC ([3]; KBSA34, MRSA): 0.5 µg/mL (≈ 1.38 µM) | MIC ([3]; KBSA72, MRSA): > 128 µg/mL | MIC ([3]; KBSA96, MRSA): 16 µg/mL (≈ 44.3 µM) | MIC ([3]; KBSA171, MRSA): 32 µg/mL (≈ 88.6 µM) | MIC ([3]; KSA24, MRSA): 32 µg/mL (≈ 88.6 µM) | MIC ([3]; KSA31, MRSA): 8 µg/mL (≈ 22.1 µM) | MIC ([3]; KSA36, MRSA): > 128 µg/mL | MIC ([3]; MRSA / MSSA / NCTC 8325, NCTC 8325, MSSA): 0.25 µg/mL (≈ 0.692 µM) | MIC ([3]; MRSA / MSSA / USA300, USA300 FPR3757, CA-MRSA): 16 µg/mL (≈ 44.3 µM) | MIC ([3]; MW2, CA-MRSA): 0.5 µg/mL (≈ 1.38 µM) | MIC ([3]; N315, MRSA): 0.25 µg/mL (≈ 0.692 µM)
